Experimental data reported in patent publication US12403117B2, “Stable pharmaceutical composition containing non-steroidal anti-inflammatory drug derivative” (ZHEJIANG YUEJIA PHARMACEUTICALS CO., LTD, priority 2017, dated 2025).
Values joined by “and” are separate entries in the source; they are usually repeats but may differ in a detail not shown here. Equal entries are not always repeated.

What was measured:
Assay type in all cases: physicochemical
[1] = Repose angle by injection method
Description: The “repose angle” formed by stacking the powders or particles reflects its fluidity. The term “repose angle” generally refers to the maximum angle formed by the free slope of the layer of the stacked powders or particles and the horizontal plane. The smaller the repose angle, the smaller the friction between the powders or particles, and the better the fluidity. Better fluidity is more convenient for dissolution and use of the powders or particles. Methods for measuring the repose angle are well known to those skilled in the art. The repose angle is measured by an “injection method” in the examples of the invention, that is, the particles flow out of the funnel and fall on the plane to form a cone, and the base angle is the repose angle.

[2] = Stability of aqueous solution of 2-(diethylamino)-ethyl-2-(4-isobutylphenyl) propionate hydrochloride at 25° C.±2° C. (HPLC); conditions: 10 g in 50 mL sterile water
Method: 10 g of 2-(diethylamino)-ethyl-2-(4-isobutylphenyl) propionate hydrochloride prepared in Example 5 was dissolved in 50 mL of sterile water and placed at 25° C.±2° C. Samples were taken on day 0, week 1, week 2, week 3 and week 4 to detect the contents of the main drug and specific impurities (ibuprofen), wherein the content of the main drug and specific impurities were detected by high-performance liquid chromatography (area normalization). The conditions of HPLC were as follows: • Column: Inertsil ODS-3 (250×4.6 mm, 5 μm) or equivalent • Flow rate: 1.0 ml/min • Column temperature: 33° C. • Wavelength: 264 nm • Injection volume: 10 μl • Mobile phase: (3.065 g sodium acetate+150 ml acetic acid+375 ml water): acetonitrile (35:65).

[3] = Solubility (physical and chemical properties, Table 1)
Description: (§1) The physical and chemical properties of the synthesized crystals of 2-(diethylamino)-ethyl-2-acetoxybenzoate hydrochloride are shown in Table 1.

[4] = Acidity: pH value of the aqueous solution; conditions: 25 ± 0.5° C.
[5] = Dissociation constant
Description: as §1

[6] = Stability of aqueous solution of 2-(diethylamino)-ethyl-2-acetoxybenzoate hydrochloride at 2-8° C. (HPLC); conditions: 5 g in 50 mL sterile water
Method: 5 g of 2-(diethylamino)-ethyl-2-acetoxybenzoate hydrochloride prepared in Example 1 was dissolved in 50 mL of sterile water and placed at 2-8° C. Samples were taken on day 0, month 0.5, month 1, month 2 and month 3 to detect the contents of the main drug and specific impurities (salicylic acid-(2-diethylaminoethyl ester) hydrochloride, acetylsalicylic acid, salicylic acid) and related substances, wherein the content of the main drug and specific impurities were detected by high-performance liquid chromatography (external standard method), and the related substances were detected by high-performance liquid chromatography (principal component self-control method without correction factors). The conditions of HPLC were as follows: • Column: Inertsil ODS-3 (250×4.6 mm, 5 μm) or equivalent • Flow rate: 1.0 ml/min • Column temperature: 33° C. • Wavelength: 276 nm, 303 nm • Injection volume: 10 μl • Mobile phase: water (15 ml of triethylamine+3.5 ml of 10% tetrabutylammonium hydroxide, adding water to 1000 ml): methanol: glacial acetic acid (63:27:10).

SMILES: CCN(CC)CCOC(=O)C(C)c1ccc(CC(C)C)cc1.Cl (stereo not shown) [2-(diethylamino)-ethyl-2-(4-isobutylphenyl) propionate hydrochloride]
- Repose angle [1]: 40 °
- Ibuprofen (impurity) ([2]; week 0): Not detected
- Main Drug ([2]; week 0): 100.00%
- Unknown peak ([2]; week 0): Not detected
- Ibuprofen (impurity) ([2]; week 1): 0.39%
- Main Drug ([2]; week 1): 99.51%
- Unknown peak ([2]; week 1): 0.10%
- Ibuprofen (impurity) ([2]; week 2): 1.69%
- Main Drug ([2]; week 2): 98.12%
- Unknown peak ([2]; week 2): 0.19%
- Ibuprofen (impurity) ([2]; week 3): 4.04%
- Main Drug ([2]; week 3): 95.83%
- Unknown peak ([2]; week 3): 0.13%
- Unknown peak ([2]; week 4): 0.21%

SMILES: CCN(CC)CCOC(=O)c1ccccc1OC(C)=O.Cl [2-(diethylamino)-ethyl-2-acetoxybenzoate hydrochloride]
- Solubility ([3]; in acetone): slightly soluble
- Solubility ([3]; in ethyl acetate and ether): insoluble
- Solubility ([3]; in water): extremely soluble
- Acidity: pH value of the 2% aqueous solution [4]: product at 25 ± 0.5 °C is 4.0-6.0
- Dissociation constant [5]: 8.82
- Repose angle [1]: 42°
- Main Drug ([6]; month 0): 99.48%
- Salicylic acid (impurity) ([6]; month 0): 0.0028%
- Salicylic acid-(2-diethylaminoethyl ester) hydrochloride (impurity) ([6]; month 0): 0.51%
- Main Drug ([6]; month 0.5): 99.32%
- Salicylic acid (impurity) ([6]; month 0.5): 0.0035%
- Salicylic acid-(2-diethylaminoethyl ester) hydrochloride (impurity) ([6]; month 0.5): 0.67%
- Acetylsalicylic acid (impurity) ([6]; month 1): 0.018%
- Main Drug ([6]; month 1): 97.59%
- Salicylic acid (impurity) ([6]; month 1): 0.0044%
- Salicylic acid-(2-diethylaminoethyl ester) hydrochloride (impurity) ([6]; month 1): 2.38%
- Acetylsalicylic acid (impurity) ([6]; month 2): 0.033%
- Main Drug ([6]; month 2): 94.86%
- Salicylic acid (impurity) ([6]; month 2): 0.012%
- Salicylic acid-(2-diethylaminoethyl ester) hydrochloride (impurity) ([6]; month 2): 5.09%
- Acetylsalicylic acid (impurity) ([6]; month 3): 0.042%
- Salicylic acid (impurity) ([6]; month 3): 0.049%
- Main Drug ([6]; month 3, hydrochloride): 86% and 86.55%
